In patent US20030236218A1, “Aryl phosphate derivatives of d4T with selective activity against adenovirus and HIV” (priority 2002, published 2003):
Where two headings read alike, the source gives them in different places.

What was measured:
[1] = Pharmacokinetic studies in mice, oral administration; format: in vivo, Balb/c mice
Protocol: Female Balb/c mice (6-8 weeks old) from Taconic (Germantown, N.Y.) were housed in a controlled environment (12-hours of light/12-hours of dark, 22±1° C., 60±10% relative humidity), which is fully accredited by the USDA. All rodents were housed in microisolator cages (Lab Products, Inc., NJ) containing autoclaved bedding. The mice were allowed free access to autoclaved pellet food and tap water throughout the study. All animal care procedures conformed to the Guide for the Care and Use of Laboratory Animals (National Research Council, National Academy Press, Washington D.C. 1996).
Sampling time points were 0, 2, 5, 10, 15, 30, 45, 60, 120, 240 and 360 minutes after the gavage.
All collected blood samples were heparinized and centrifuged at 7000×g for 5 minutes to separate the plasma fraction from the whole blood. The plasma samples were then processed immediately using the extraction procedure described above.
Pharmacokinetic modeling and parameter calculations were carried out using the WinNonlin Professional Version 3.0 (Pharsight, Inc., Mountain, Calif.) pharmacokinetics software (Chen et al., Pharm. Res., 16, 1003 (1999); Chen et al., Pharm. Res., 16, 117 (1999); Chen et al., J. Clin. Pharmacol., 39, 1248 (1999); Uckun et al., Clin. Cancer Res., 5, 2954 (1999); and Uckun et al., J. Pharmacol. Exp. Ther., 291, 1301 (1999)). An appropriate model was chosen on the basis of the lowest sum of weighted squared residuals, the lowest Schwartz Criterion (SC), the lowest Akaike's Information Criterion (AIC) value, the lowest standard errors of the fitted parameters, and the dispersion of the residuals. The elimination half-life was estimated by linear regression analysis of the terminal phase of the plasma concentration-time profile. The area under the concentration-time curve (AUC) was calculated according to the linear trapezoidal rule between the first sampling time (0 hours) and the last sampling time plus C/k, where C is the concentration of the last sampling and k is the elimination rate constant. The systemic clearance (CL) was determined by dividing the dose by the AUC. The metabolic clearance of the parent drug, the formation clearance of the metabolite, the clearance elimination of the metabolite, and the distribution clearance of the metabolite were estimated by simultaneous fitting of the concentration of parent drug and metabolites as a function of time curve to pharmacokinetic models (see FIGS. 7A & 8A) specified as a system of differential equations (Gabrielsson & Weiner, Phamacokinetic/Phamacodynamic Data Analysis: Concepts and Applications, Swedish Pharmaceutical Press (1997)).

[2] = Octanol/water partition coefficient, shake flask method; format: physicochemical; conditions: 4 hours at room temperature, read-out: Oct/Water (log P)
Protocol: HPLC purification was achieved using a reverse-phase Lichrospher column (250×4 mm, Hewlett-Packard, RP-18, Cat. #79925) and an isocratic flow (1 ml/minute) consisting of water (70%) and acetonitrile (30%). Melting points were determined using a Melt John's apparatus and are uncorrected. Column chromatography was performed using silica gel obtained from Baker Company. The octanol/water partition coefficient was determined by the shake flask method. The phosphoramidate analogs were added to 2 ml of water and 2 ml of octanol in a glass vial. The mixture was shaken for 4 hours at room temperature. The two phases were carefully separated and filtered through a Millipore filter and analyzed by HPLC. The partition coefficient was calculated using the ratio of the area under the curve for octanol and water, respectively.

[3] = test system: adenovirus strain Type 5, strain adenoid 75; assay: Adenovirus plaque formation assay in skin fibroblast cell line SF; format: cell-based, human adenovirus
Excerpt: (§1) Virus stocks. The HIV-1 strain used in this study was HTLV-IIIB (Uckun et al., 1998 Antimicro. Agents and Chemother., 42:383-388). The non-HIV viruses included in the present study were the gancyclovir-sensitive cytomegalovirus (CMV) strain AD169 (ATCC VR-538); acyclovir-sensitive herpes simplex virus (HSV) Type I strain HF (ATCC VR-260); acyclovir-sensitive HSV Type II strain G (ATCC VR-734); adenovirus strain Type 5, strain adenoid 75 (ATCC VR-5); enterovirus strain, ECHO 30, strain Bastianni (ATCC VR-322); and respiratory syncytial virus (RSV), strain Long (ATCC VR-26).
Plaque formation assays. Plaque assays were used to examine the activity of the compounds against non-HIV viruses. The skin fibroblast cell line SF (ATCC CRL-2097) was used as a target for AD169, Adenovirus Type 5. […] cell line (ATCC CCL-81) was used as a target for HSV HF and G. The HEP-2 cell line (ATCC CCL-23) was used as a target for the RSV strain Long. These cell lines were cultured at 1×10^5 cells/well in 24-well (all but ECHO 30-infected SF) or 6-well (ECHO 30-infected SF) tissue culture plates with 0.9% methylcellulose or 0.4% SeaPlaque agarose semisolid support. Minimum Essential Medium (MEM) with Earle's salts (Gibco), L-glutamine, non-essential amino acids, 2% heat-inactivated fetal bovine serum, 1% penicillin/streptomycin, and 0.05% gentamicin served as the culture medium. The incubation times were 3 days for HF, G, ECHO 30, and Long; and 7 days for AD169 and Adenovirus Type 5. Plaque counting was performed with a 20X dissecting microscope for AD169, Type 5, ECHO 30, and RSV Long, and with a light box for HF and G. The fixative agent was crystal violet for all viruses, except for the CMV strain AD169 for which methylene blue was used. Percent inhibition of plaque formation was calculated by comparing the plaque numbers from the test substance-treated infected cells with the plaque numbers from untreated infected cells (i.e., virus controls). The IC50 values were determined using the Statview statistics program (SAS Institute, Inc., Cary, N.C.).
Statistical analysis. Each drug was tested at 6-7 different concentrations ranging from 0.0001 μM to 100 μM. Each assay was set up in triplicate wells and repeated 1-3 times. An IC50 value was calculated from each set of triplicate wells using nonlinear regression modeling of the exponential form of the linearized equation (Statview, SAS Institute, Inc., Cary, N.C.). […] The IC50 values obtained were correlated to the log transformed hydrolysis rate constants by fitting a linear model (JMP Software, SAS Institute Inc., Cary, N.C.). P-values less than 0.05 were deemed significant.
(§2) The skin fibroblast cell line SF (ATCC CRL-2097) was used as a target for AD169, Adenovirus Type 5, and ECHO 30; the VERO cell line (ATCC CCL-81) was used as a target for HF and G; and the HEP-2 cell line (ATCC CCL-23) was used as target for the RSV strain Long. Results are expressed as the average IC50 values in μM. Stavudine (STV) was included as a control.

HIV-1 strain HTLV-IIIB = assay: In vitro anti-HIV-1 activity, p24 antigen assay in PBMNC; format: cell-based; conditions: Human immunodeficiency virus 1, HIV-1, HTLV-IIIB, day 7
Excerpt: as §1
In vitro assays of anti-HIV-1 activity. Normal human peripheral blood mononuclear cells (PBMNC) from HIV-negative donors were cultured 72 hours in RPMI 1640 supplemented with 20% (v/v) heat-inactivated fetal bovine serum (FBS), 3% interleukin-2, 2 mM L-glutamine, 25 mM HEPES, 2 g/L NaHCO3, 50 Tg/mL gentamicin, and 4 Tg/mL phytohemagglutinin prior to exposure to HIV-1 at a multiplicity of infection (MOI) of 0.1 during a 1 hour adsorption period at 37° C. in a humidified 5% CO2 atmosphere. Subsequently, cells were cultured in 96-well microtiter plates (100 TL, 2×10^6 cells/mL) in the presence of various concentrations of compounds 113 or 609. Aliquots of culture supernatants were removed from the wells on the seventh day after infection for p24 antigen assays, as previously described. […] Percent viral inhibition was calculated by comparing the p24 values from untreated infected cells (i.e., virus controls).
Statistical analysis. […] An IC50 value was calculated from each set of triplicate wells using nonlinear regression modeling of the exponential form of the linearized equation (Statview, SAS Institute, Inc., Cary, N.C.). Hydrolysis rates were determined by fitting single exponential decay equations to the disappearance of the compound in alkali conditions (all R^2 values greater than 0.85). […]

[4] = test system: cytomegalovirus (CMV) strain AD169; assay: CMV plaque formation assay in SF cells; format: cell-based; conditions: Human betaherpesvirus 5
Excerpt: as §1
(§3) Plaque formation assays. Plaque assays were used to examine the activity of the compounds against non-HIV viruses. The skin fibroblast cell line SF (ATCC CRL-2097) was used as a target for AD169, Adenovirus Type 5. […] cell line (ATCC CCL-81) was used as a target for HSV HF and G. The HEP-2 cell line (ATCC CCL-23) was used as a target for the RSV strain Long. These cell lines were cultured at 1×10^5 cells/well in 24-well (all but ECHO 30-infected SF) or 6-well (ECHO 30-infected SF) tissue culture plates with 0.9% methylcellulose or 0.4% SeaPlaque agarose semisolid support. […] Percent inhibition of plaque formation was calculated by comparing the plaque numbers from the test substance-treated infected cells with the plaque numbers from untreated infected cells (i.e., virus controls). The IC50 values were determined using the Statview statistics program (SAS Institute, Inc., Cary, N.C.).
(§4) Statistical analysis. […] An IC50 value was calculated from each set of triplicate wells using nonlinear regression modeling of the exponential form of the linearized equation (Statview, SAS Institute, Inc., Cary, N.C.). […]
as §2, with “Stavudine (STV) was included as a control.” left out

[5] = test system: herpes simplex virus (HSV) Type I strain HF; assay: HSV-1 plaque formation assay in VERO cells; format: cell-based; conditions: Human alphaherpesvirus 1, HSV-1, Strain HF
Excerpt: as §1, §3, §4
as §2, with “Stavudine (STV) was included as a control.” left out

HSV Type II strain G = assay: HSV-2 plaque formation assay in VERO cells; format: cell-based, herpes simplex virus Type II; conditions: Human alphaherpesvirus 2, HSV-2, Strain G
Excerpt: as §1, §3, §4
as §2, with “Stavudine (STV) was included as a control.” left out

[6] = test system: respiratory syncytial virus (RSV), strain Long; assay: RSV plaque formation assay in HEP-2 cells; format: cell-based; conditions: human respiratory syncytial virus
Excerpt: as §1, §3, §4
as §2, with “Stavudine (STV) was included as a control.” left out

SMILES | plasma concentration of the parent ([1]; after oral 100 mg/kg compound 113, below the detection limit) [nM] | logP at 4 h [2] | IC50 ([3]; Adenovirus Type 5, 7 days, ± s.e., read-out: IC50, ADV-induced plaque formation) [µM] | IC50 ([3]; Skin fibroblast, […], read-out: IC50, ADV-induced plaque formation, Adenovirus Type 5, 7 days, ± s.e.) [µM] | IC50 (HIV-1 strain HTLV-IIIB) [µM] | IC50 [4] [µM] | IC50 [5] [µM] | IC50 (HSV Type II strain G) [µM] | IC50 ([6]; HEp-2) [µM] | half-life ([1]; mouse, in vivo, po, mice, orally administered d4T) [min] | Tmax ([1]; mouse, in vivo, po, mice, orally administered d4T, read-out: tmax (converted)) [min] | bioavailability ([1]; orally administered d4T) [%] | logP at 4 h ([2]; octanol/water) | IC50 ([3]; Skin fibroblast, […], Adenovirus Type 5, 7 days, ± s.e., read-out: IC50, ADV-induced plaque formation) [µM] | IC50 ([6]; RSV, Strain Long, HEP-2 cells, plaque assay, read-out: IC50) [µM]
COC(=O)C(C)NP(=O)(OC[C@@H]1C=C[C@H](n2cc(C)c(=O)[nH]c2=O)O1)Oc1ccc(Br)cc1 (stereo partly shown) [Compound 113, 5′-[4-Bromophenyl methoxylaninylphosphate]-2′, 3′-didehydro-3′-deoxy thymidine] | < 500 | 1.21 | 0.0223 ± 0.009 | 0.022 ± 0.009 | 0.001 | > 100 | > 100 | > 100 | > 100 |  |  |  |  |  | 
Cc1cn([C@H]2C=C[C@@H](CO)O2)c(=O)[nH]c1=O [d4T, 2′, 3′-Didehydro-3′-deoxy thymidine, reference compound] |  |  |  |  | 0.023 ± 0.008 | > 100 | > 100 | > 100 |  | 18 | 5 | 98 | -0.59 | 12.3 ± 0.3 | > 100
